Measurements as given in publication PMC10176470, “Engaging a Non-catalytic Cysteine Residue Drives Potent and Selective Inhibition of Caspase-6” (Journal of the American Chemical Society, 2023).

How the values were obtained:
Test in all cases: SILAC proteomics / in-gel fluorescence, competition of probe 13-t labeling by 3a
[1] = molecular target: proteins of HEK293T cells transiently overexpressing caspase-6 (Homo sapiens, UniProt Q9BZZ5); conditions: Comp; protein API5 Q9BZZ5
[2] = molecular target: proteins of HEK293T cells transiently overexpressing caspase-6 (Homo sapiens, UniProt P13804); conditions: Comp; protein ETFA P13804
[3] = molecular target: proteins of HEK293T cells transiently overexpressing caspase-6 (Homo sapiens, UniProt P12956); conditions: Comp; protein XRCC6 P12956
[4] = molecular target: proteins of HEK293T cells transiently overexpressing caspase-6 (Homo sapiens, UniProt P62906); conditions: Comp; protein RPL10A P62906
[5] = molecular target: proteins of HEK293T cells transiently overexpressing caspase-6 (Homo sapiens, UniProt Q07666); conditions: Comp; protein KHDRBS1 Q07666
[6] = molecular target: proteins of HEK293T cells transiently overexpressing caspase-6 (Homo sapiens, UniProt Q13151); conditions: Comp; protein HNRNPA0 Q13151
[7] = molecular target: proteins of HEK293T cells transiently overexpressing caspase-6 (Homo sapiens, UniProt P17987); conditions: Comp; protein TCP1 P17987
proteins of HEK293T cells transiently overexpressing caspase-6 (Homo sapiens, UniProt P17987), sequence (P17987 whole entry): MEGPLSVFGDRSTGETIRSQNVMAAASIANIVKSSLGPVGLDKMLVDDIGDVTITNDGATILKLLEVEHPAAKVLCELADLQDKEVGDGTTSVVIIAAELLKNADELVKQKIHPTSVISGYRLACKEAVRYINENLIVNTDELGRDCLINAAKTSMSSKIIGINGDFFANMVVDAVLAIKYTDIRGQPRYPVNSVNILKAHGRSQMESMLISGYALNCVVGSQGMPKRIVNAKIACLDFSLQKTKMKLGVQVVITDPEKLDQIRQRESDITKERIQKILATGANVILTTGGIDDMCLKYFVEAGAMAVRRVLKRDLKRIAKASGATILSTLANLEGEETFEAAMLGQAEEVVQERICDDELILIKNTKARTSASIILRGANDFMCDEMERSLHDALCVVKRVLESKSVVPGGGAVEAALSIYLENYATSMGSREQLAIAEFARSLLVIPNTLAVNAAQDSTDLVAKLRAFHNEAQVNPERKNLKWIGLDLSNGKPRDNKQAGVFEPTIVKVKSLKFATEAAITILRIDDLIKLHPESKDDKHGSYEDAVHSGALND

proteins of HEK293T cells transiently overexpressing caspase-6 (Homo sapiens, UniProt Q07666), sequence (Q07666 whole entry): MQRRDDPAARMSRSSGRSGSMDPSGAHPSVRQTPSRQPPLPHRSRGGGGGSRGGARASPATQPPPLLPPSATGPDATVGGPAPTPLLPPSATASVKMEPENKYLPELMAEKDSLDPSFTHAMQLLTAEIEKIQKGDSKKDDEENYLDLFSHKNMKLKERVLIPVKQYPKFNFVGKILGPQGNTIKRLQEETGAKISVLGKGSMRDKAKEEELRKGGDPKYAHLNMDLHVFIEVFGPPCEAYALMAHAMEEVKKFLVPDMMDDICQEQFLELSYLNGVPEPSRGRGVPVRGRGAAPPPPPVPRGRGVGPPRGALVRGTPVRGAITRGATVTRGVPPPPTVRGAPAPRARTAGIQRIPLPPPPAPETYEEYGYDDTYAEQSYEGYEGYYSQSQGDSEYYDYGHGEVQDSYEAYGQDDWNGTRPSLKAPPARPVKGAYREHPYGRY
proteins of HEK293T cells transiently overexpressing caspase-6 (Homo sapiens, UniProt Q13151), sequence (Q13151 whole entry): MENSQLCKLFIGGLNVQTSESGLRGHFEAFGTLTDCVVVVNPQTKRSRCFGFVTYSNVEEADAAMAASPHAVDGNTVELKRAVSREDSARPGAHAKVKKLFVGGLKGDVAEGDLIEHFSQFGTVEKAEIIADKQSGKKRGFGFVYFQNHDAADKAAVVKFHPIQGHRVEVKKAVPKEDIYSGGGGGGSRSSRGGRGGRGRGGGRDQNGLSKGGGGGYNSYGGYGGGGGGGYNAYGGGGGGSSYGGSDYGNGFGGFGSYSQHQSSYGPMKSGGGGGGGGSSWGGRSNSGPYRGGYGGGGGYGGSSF
proteins of HEK293T cells transiently overexpressing caspase-6 (Homo sapiens, UniProt Q9BZZ5), sequence (Q9BZZ5 whole entry): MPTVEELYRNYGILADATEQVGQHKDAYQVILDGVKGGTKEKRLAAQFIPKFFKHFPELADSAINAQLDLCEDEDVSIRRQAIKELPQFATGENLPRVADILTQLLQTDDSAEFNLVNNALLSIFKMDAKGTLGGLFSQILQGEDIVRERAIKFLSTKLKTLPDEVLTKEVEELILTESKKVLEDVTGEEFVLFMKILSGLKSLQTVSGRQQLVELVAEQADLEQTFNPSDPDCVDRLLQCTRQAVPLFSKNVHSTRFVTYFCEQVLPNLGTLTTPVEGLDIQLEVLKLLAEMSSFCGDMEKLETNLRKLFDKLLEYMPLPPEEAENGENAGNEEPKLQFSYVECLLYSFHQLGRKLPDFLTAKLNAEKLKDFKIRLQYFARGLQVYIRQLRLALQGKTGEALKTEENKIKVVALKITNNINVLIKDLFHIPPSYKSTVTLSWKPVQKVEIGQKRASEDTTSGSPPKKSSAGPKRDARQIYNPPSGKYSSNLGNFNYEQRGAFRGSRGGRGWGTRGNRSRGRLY
proteins of HEK293T cells transiently overexpressing caspase-6 (Homo sapiens, UniProt P12956), sequence (P12956 whole entry): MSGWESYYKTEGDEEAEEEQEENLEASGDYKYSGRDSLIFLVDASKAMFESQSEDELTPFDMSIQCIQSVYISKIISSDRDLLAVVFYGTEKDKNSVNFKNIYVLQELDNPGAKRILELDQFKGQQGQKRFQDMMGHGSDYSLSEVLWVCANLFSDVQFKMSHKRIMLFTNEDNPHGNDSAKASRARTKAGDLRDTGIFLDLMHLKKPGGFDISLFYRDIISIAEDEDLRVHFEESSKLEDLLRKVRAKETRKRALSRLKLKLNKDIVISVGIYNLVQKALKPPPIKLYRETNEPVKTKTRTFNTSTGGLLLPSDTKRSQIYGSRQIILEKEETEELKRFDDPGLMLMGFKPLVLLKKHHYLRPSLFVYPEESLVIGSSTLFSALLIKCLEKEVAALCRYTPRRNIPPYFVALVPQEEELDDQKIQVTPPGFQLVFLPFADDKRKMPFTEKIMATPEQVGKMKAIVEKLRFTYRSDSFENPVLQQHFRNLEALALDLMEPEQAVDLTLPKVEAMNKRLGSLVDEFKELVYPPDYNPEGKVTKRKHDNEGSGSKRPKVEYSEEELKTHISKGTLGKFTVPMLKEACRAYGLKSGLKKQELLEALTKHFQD
proteins of HEK293T cells transiently overexpressing caspase-6 (Homo sapiens, UniProt P13804), sequence (P13804 20-333): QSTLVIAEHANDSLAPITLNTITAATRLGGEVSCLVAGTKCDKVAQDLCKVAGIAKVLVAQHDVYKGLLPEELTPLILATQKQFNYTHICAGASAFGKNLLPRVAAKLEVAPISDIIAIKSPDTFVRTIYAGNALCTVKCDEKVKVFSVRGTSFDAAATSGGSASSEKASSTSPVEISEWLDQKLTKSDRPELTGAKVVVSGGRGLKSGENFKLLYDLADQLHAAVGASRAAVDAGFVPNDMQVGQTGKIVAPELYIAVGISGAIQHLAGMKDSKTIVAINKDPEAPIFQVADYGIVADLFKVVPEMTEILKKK

Compound `C=CS(=O)(=O)N1C[C@H](C(=O)Nc2ccc(OC(F)(F)F)cc2)C[C@@H](c2ccccc2)C1` [3a] has an enrich.exp.med [1] of 0.5956, an enrich.exp.med [2] of 0.7888 and an enrich.exp.med [3] of 0.7902. For the same compound, the enrich.exp.med [4] was 0.678, the enrich.exp.med [5] was 0.748 and the enrich.exp.med [6] was 0.7909. The enrich.exp.med [7] was 0.7901.
